Measurements from patent US6486198B1, “Compounds and methods for the treatment of post traumatic stress disorder” (priority 1999, dated 2002).

Tests used:
kindled epilepsy = conditions: in vivo; cited from earlier work
[1] = system: seizures in rodent models of epilepsy; conditions: several rodent models; cited from earlier work
[2] = system: DSM-IV PTSD criterion B symptoms of nightmares and intrusions (intrusive recollections/flashbacks); assay: Naturalistic add-on/monotherapy topiramate trial in chronic PTSD patients; patient self-report of partial/full response of nightmares and intrusions (LOCF); assay type: in vivo, human
Description: Thirty five (35) patients meeting DSM-IV criteria for chronic post-traumatic stress disorder (PTSD) were selected for a study of the effects of topiramate administration. […] The group with hallucinatory PTSD experienced auditory and/or visual hallucinations containing content specifically associated with identified traumatic events. Whether these were PTSD “flashbacks” or psychotic experiences were at times difficult to ascertain due to fluctuations in reality testing the hallucinations. For this reason, prior to being screened for PTSD, some patients had received psychiatric diagnoses of psychotic disorders despite meeting full diagnostic criteria for PTSD.
Topiramate was added naturalistically to existing pharmacotherapy (see Table 1 for concomitant medications at start of trial), starting at 25 mglday and increasing whenever possible by 25 to 50 mg/day every 3 to 4 days to clinical response. Target symptoms were DSM-IV PTSD criterion B symptoms of nightmares (N =24) and intrusions (intrusive recollections/flashbacks, N=35) involving re-experiencing of traumas. Definitions of improvement, as assessed from patient self-report, included “partial response” as “definite reduction in intensity and frequency of nightmares or intrusions”, and “full response” as “complete cessation of nightmares and intrusions for a sustained period”. Following the seminal observations, in order to systematically identify responsive symptoms, the next 17 patients completed a self-report scale, the PTSD Checklist—Civilian Version (PCL-C)15, at baseline and at 4 weeks after starting topiramate. The patients were instructed to complete the PCL-C for experiences corresponding to traumas consistent with DSM-IV criterion A for PTSD. Paired ttest scores for the PCL-C were calculated with Jandel SigmaStat® v. 2.0.
Response assessment, summarized in Table 4, used the Last Observation Carried Forward (LOCF) method, which includes all patients who entered the trial and their last reported condition while under active treatment. Overall, topiramate suppressed nightmares in 79% of patients ([…]; 5/28 partially), and intrusions in 86% (22/35 fully; 8/35 partially). Globally (i.e., in terms of suppression of both nightmares and intrusions), 22 patients (63%) reported a full response and 8 patients (23%) a partial response. Five patients discontinued without response, 1 at 5 days, and the remaining 4 after 4 weeks. The non-hallucinatory subgroup achieved a higher response rate (full: 79%; full/partial: 89%). All full responses occurred in the non-hallucinatory subgroup. Benefit usually occurred within 2 to 3 days of reaching an effective dose. A full response to topiramate was reported for 10 patients within 1 week of treatment, and for 3 additional patients by the third week of treatment.

[3] = All Patients (N = 35), both nightmares and intrusions
[4] = All Patients (N = 35), both nightmares and intrusions, listed as topiramate
[5] = All Patients (N = 35), either nightmares or intrusions
[6] = All Patients (N = 35), either nightmares or intrusions, listed as topiramate
[7] = All Patients (N = 35), listed as topiramate
[8] = All Patients (N = 35), partial + full response
[9] = All Patients (N = 35), partial + full response, listed as topiramate
[10] = Non-Hallucinatory PTSD, Bipolar Disorder (N = 8)
[11] = Non-Hallucinatory PTSD, Bipolar Disorder (N = 8), listed as topiramate
[12] = Non-Hallucinatory PTSD, Non-Bipolar Disorder (N = 20)
[13] = Non-Hallucinatory PTSD, Non-Bipolar Disorder (N = 20), listed as topiramate
[14] = Patients with Hallucinatory PTSD (N = 7)
[15] = Patients with Hallucinatory PTSD (N = 7), listed as topiramate
[16] = Patients with Non-Hallucinatory PTSD, Total (N + 28)
[17] = Patients with Non-Hallucinatory PTSD, Total (N + 28), listed as topiramate

Structure (SMILES): CC1(C)O[C@@H]2[C@@H](CO[C@@]3(COS(N)(=O)=O)OC(C)(C)O[C@@H]23)O1 [Topiramate, 2,3:4,5-bis-O-(1-methylethylidene)-β-D-fructopyranose sulfamate]
- Seizure block in animal model of kindled epilepsy (kindled epilepsy): effectively block seizures
- Seizure block in rodent models of epilepsy [1]: effectively block seizures
- Share of partial responders with response at a dosage of 75 mg/day or less ([2]; 75 mg/day or less): 95%
- Share of full responders with response at a dosage of 100 mg/day or less ([2]; 100 mg/day or less): 91%
- Patients discontinued without response ([2]; 1 at 5 days, remaining 4 after 4 weeks): Five
- Dosage of topiramate, Full response, mean ± SD ([2]; All Patients (N = 35)): 78.6 mg/day
- Dosage of topiramate, Full response, median ([2]; All Patients (N = 35)): (50.0) mg/day
- Dosage of topiramate, Partial response (threshold dosage), mean ± SD ([2]; All Patients (N = 35)): 41.7 mg/day
- Dosage of topiramate, Partial response, median ([2]; All Patients (N = 35)): (25.0) mg/day
- Suppression of intrusions, Full (number of patients) ([2]; All Patients (N = 35)): 22
- Suppression of intrusions, Partial (number of patients) ([2]; All Patients (N = 35)): 8
- Suppression of nightmares, Full (number of patients) ([2]; All Patients (N = 35)): 14
- Suppression of nightmares, Partial (number of patients) ([2]; All Patients (N = 35)): 5
- Time to onset of response, Full, mean ± SD [2, 3]: 35.3 days
- Time to onset of response, Full, median [2, 3]: (8.0) days
- Time to onset of response, Full, mean ± SD [2, 4]: 35 ± 48.6 days
- Time to onset of response, Full, median [2, 4]: 8.0 days
- Time to onset of response, Partial, mean ± SD [2, 5]: 10.9 days
- Time to onset of response, Partial, median [2, 5]: (4.0) days
- Time to onset of response, Partial, mean ± SD [2, 6]: 11 ± 13.1 days
- Time to onset of response, Partial, median [2, 6]: 4.0 days
- Dosage of topiramate, Full response, mean ± SD [2, 7]: 79 ± 113.8 mg/day
- Dosage of topiramate, Full response, median [2, 7]: 50.0 mg/day
- Dosage of topiramate, Partial response (threshold dosage), mean ± SD [2, 7]: 42 ± 31.7 mg/day
- Dosage of topiramate, Partial response, median [2, 7]: 25.0 mg/day
- Suppression of intrusions (N = 35) [2, 8]: 86%
- Suppression of nightmares (N = 24) [2, 8]: 79%
- Suppression of intrusions (N = 35) [2, 9]: 86%
- Suppression of nightmares (N = 24) [2, 9]: 79%
- Dosage of topiramate, Full response, mean ± SD [2, 10]: 154.2 mg/day
- Dosage of topiramate, Full response, median [2, 10]: (37.5) mg/day
- Dosage of topiramate, Partial response (threshold dosage), mean ± SD [2, 10]: 58.3 ± 14.4 mg/day
- Dosage of topiramate, Partial response, median [2, 10]: (50.0) mg/day
- Suppression of intrusions (N = 35) [2, 10]: 88% (7/8)
- Suppression of intrusions, Full (number of patients) [2, 10]: 6
- Suppression of intrusions, Partial (number of patients) [2, 10]: 1
- Suppression of nightmares (N = 24) [2, 10]: 83% (5/6)
- Suppression of nightmares, Full (number of patients) [2, 10]: 4
- Suppression of nightmares, Partial (number of patients) [2, 10]: 1
- Time to onset of response, Full, mean ± SD [2, 10]: 43.3 ± 62.5 days
- Time to onset of response, Full, median [2, 10]: (6.0) days
- Time to onset of response, Partial, mean ± SD [2, 10]: 17.3 ± 13.5 days
- Time to onset of response, Partial, median [2, 10]: (17.0) days
- Dosage of topiramate, Full response, mean ± SD [2, 11]: 154 ± 200.9 mg/day
- Dosage of topiramate, Full response, median [2, 11]: 37.5 mg/day
- Dosage of topiramate, Partial response (threshold dosage), mean ± SD [2, 11]: 58 ± 14.4 mg/day
- Dosage of topiramate, Partial response, median [2, 11]: 50.0 mg/day
- Dosage of topiramate, Full response, mean ± SD [2, 12]: 48.3 mg/day
- Dosage of topiramate, Full response, median [2, 12]: (50.0) mg/day
- Dosage of topiramate, Partial response (threshold dosage), mean ± SD [2, 12]: 26.9 mg/day
- Dosage of topiramate, Partial response, median [2, 12]: (25.0) mg/day
- Suppression of intrusions (N = 35) [2, 12]: 90%
- Suppression of intrusions, Full (number of patients) [2, 12]: 16
- Suppression of intrusions, Partial (number of patients) [2, 12]: 2
- Suppression of nightmares (N = 24) [2, 12]: 85%
- Suppression of nightmares, Full (number of patients) [2, 12]: 10
- Suppression of nightmares, Partial (number of patients) [2, 12]: 1
- Time to onset of response, Full, mean ± SD [2, 12]: 32.1 days
- Time to onset of response, Full, median [2, 12]: (10.0) days
- Time to onset of response, Partial, mean ± SD [2, 12]: 8.6 days
- Time to onset of response, Partial, median [2, 12]: (3.5) days
- Dosage of topiramate, Full response, mean ± SD [2, 13]: 48 ± 25.4 mg/day
- Dosage of topiramate, Full response, median [2, 13]: 50.0 mg/day
- Dosage of topiramate, Partial response (threshold dosage), mean ± SD [2, 13]: 30 ± 11.2 mg/day
- Dosage of topiramate, Partial response, median [2, 13]: 25.0 mg/day
- Dosage of topiramate, Partial response (threshold dosage), mean ± SD [2, 14]: 70.0 ± 51.2 mg/day
- Dosage of topiramate, Partial response, median [2, 14]: (75.0) mg/day
- Suppression of intrusions (N = 35) [2, 14]: 71% (5/7)
- Suppression of intrusions, Full (number of patients) [2, 14]: 0
- Suppression of intrusions, Partial (number of patients) [2, 14]: 5
- Suppression of nightmares (N = 24) [2, 14]: 60% (3/5)
- Suppression of nightmares, Full (number of patients) [2, 14]: 0
- Suppression of nightmares, Partial (number of patients) [2, 14]: 3
- Time to onset of response, Partial, mean ± SD [2, 14]: 12.6 ± 15.7 days
- Time to onset of response, Partial, median [2, 14]: (7.0) days
- Dosage of topiramate, Partial response (threshold dosage), mean ± SD [2, 15]: 70.0 ± 51.2 mg/day
- Dosage of topiramate, Partial response, median [2, 15]: 75.0 mg/day
- Time to onset of response, Partial, mean ± SD [2, 15]: 13 ± 15.7 days
- Time to onset of response, Partial, median [2, 15]: 7.0 days
- Dosage of topiramate, Full response, mean ± SD [2, 16]: 78.6 mg/day
- Dosage of topiramate, Full response, median [2, 16]: (50.0) mg/day
- Dosage of topiramate, Partial response (threshold dosage), mean ± SD [2, 16]: 32.8 mg/day
- Dosage of topiramate, Partial response, median [2, 16]: (25.0) mg/day
- Suppression of intrusions (N = 35) [2, 16]: 89%
- Suppression of intrusions, Full (number of patients) [2, 16]: 22
- Suppression of intrusions, Partial (number of patients) [2, 16]: 3
- Suppression of nightmares (N = 24) [2, 16]: 84%
- Suppression of nightmares, Full (number of patients) [2, 16]: 14
- Suppression of nightmares, Partial (number of patients) [2, 16]: 2
- Time to onset of response, Full, mean ± SD [2, 16]: 35.3 days
- Time to onset of response, Full, median [2, 16]: (8.0) days
- Time to onset of response, Partial, mean ± SD [2, 16]: 10.3 days
- Time to onset of response, Partial, median [2, 16]: (4.0) days
- Time to onset of response, Partial, mean ± SD [2, 17]: 10 ± 12.7 days
- Time to onset of response, Partial, median [2, 17]: 4.0 days
- Global full response rate (suppression of both nightmares and intrusions) ([2]; all 35 patients): 63%
- Global full response, number of patients ([2]; all 35 patients): 22 patients
- Global partial response rate ([2]; all 35 patients): 23%
- Global partial response, number of patients ([2]; all 35 patients): 8 patients
- Response rate, full/partial ([2]; all patients): 86%
- Additional patients reporting a full response by the third week of treatment ([2]; by the third week): 3 patients
- Response rate, full ([2]; hallucinatory group): 0%
- Response rate, partial ([2]; hallucinatory group): 83%
- Response rate, full ([2]; non-hallucinatory subgroup): 79%
- Response rate, full/partial ([2]; non-hallucinatory subgroup): 89%
- Patients reporting a full response within 1 week of treatment ([2]; within 1 week of treatment): 10 patients
